Three molecules from the NIST ThermoML archive (doi:10.1016/j.jct.2019.01.018) can be followed below.

± gives the expanded uncertainty stated by the source.

The series is described as follows: xn = mol fraction of the nth substance listed. The following applies: 298.15 K, 101.1 kPa, Liquid; for viscosity: Falling or rolling sphere viscometry; for mass density: Vibrating tube method.

On to `C[N+](C)(C)CCO.[Cl-]` [choline chloride] + OCC(O)CO, for which, under “x1 = 0.333”, the viscosity was 317.14 ± 69 mPa·s and the mass density is 1191.3 ± 16 kg/m3.
Regarding `C[N+](C)(C)CCO.[Cl-]` [choline chloride] + OCCO, under “x1 = 0.333”, the viscosity is on record as 39.45 ± 8.3 mPa·s and the mass density amounted to 1120.4 ± 15 kg/m3.
With `NC(N)=O` [urea] + C[N+](C)(C)CCO.[Cl-], under “x2 = 0.333”, the viscosity turned out to be 1348.3 ± 320 mPa·s and the mass density is recorded as 1210.4 ± 16 kg/m3.

What is called viscosity is the internal friction of a fluid under shear. The term mass density denotes the mass of a sample divided by its volume.
